Measured values reported in US20030148267A1, “Screening assay for hepatitis C virus antiviral agents” (priority 2001, published 2003).
Where “and” joins values, the source holds several entries; their conditions need not be identical. Equal values may be shown once. Entries after “also recorded” stand apart in the source; their conditions may differ.

Assays:
[1] = test system: HCV (−) RNA synthesis; experiment: HCV (−) strand RNA synthesis in binary HCV expression system (RNase protection assay, strand-specific RT-PCR); assay type: cell-based, hepatitis C virus (genotype 1a, strain H77); conditions: for HCV (−) strand results with other timing of the drug: drug given 0 and 12 hours before vTF7-3 infection instead of 20 hours; for HCV replicative strand synthesis: the two RBV doses (50 and 400)
[2] = test system: HCV RNA; experiment: HCV RNA quasispecies analysis (mutation rate) in transfected/infected CV-1 cells; assay type: cell-based, hepatitis C virus (genotype 1a, strain H77); parameters: nucleotide substitutions / substitutions / error generation / dN/dS (nonsynonymous/synonymous mutation): unit of the concentration uncertain
Method: Twenty-four hours post-vvT7, cells were lysed and RNA was extracted by TRIzol (GIBCO/BRL), DNase I-treated (Roche Molecular Biochemicals), and phenol-chloroform extracted.
RT-PCR was performed for the 5′UTR, core, E2-HVR1, NS5A and NS5B regions using region-specific primers: […]
RT was carried out on extracted RNA using AMV reverse transcriptase (Perkin-Elmer) using standard conditions. 25 cycles of PCR were carried out using 25 pmol each of the relevant sense and antisense primers, 0.5 mM of each dNTP, 1.5 mM MgCl2, and 0.5 units of Taq polymerase (Perkin-Elmer).
Amplicons were cloned using the TOPO-PCR system (Invitrogen). Between 11 and 20 individual transformants corresponding to each region were sequenced bidirectionally by the ABI Prism automated sequencer, using primers flanking the insert. Synonymous and non-synonymous substitutions at variance from the parent pT7flHCV-Rz and pT7HCVDBglII-Rz sequences were determined and error generation rates calculated as nucleotide substitutions/total nucleotides sequenced. Sequences were aligned, and quasispecies diversity rates were compared between groups by using the statistical package SPSS 9.0.

[3] = test system: HSV-1; experiment: HSV-1 plaque formation in CV-1 cells; assay type: cell-based; conditions: the two RBV doses (50 and 400); listed as RBV
[4] = test system: HCV core protein
[5] = RBV 50, E2 (HVR-1), listed as REV

Molecule: NC(=O)c1ncn([C@@H]2O[C@H](CO)[C@@H](O)[C@H]2O)n1 [ribavirin]
- additional RNA inhibitory effects ([1]; RBV added to IFN): not seen
- HCV (−) RNA synthesis ([1]; doses of 10-200 mg/well): No inhibitory effect; also recorded: Neither ribavirin nor amantadine demonstrated direct activity
- HCV (−) strand results with other timing of the drug [1]: unchanged
- HCV replicative strand synthesis [1]: no effect
- HCV replicative strand synthesis ([1]; listed as RBV): no direct decrease
- error generation throughout the viral genome compared with the lower dose ([2]; 400 mM vs 50 mM, differences not statistically significant): to a lesser degree than that observed at the lower dose
- nucleotide substitutions ([2]; 50 (unit uncertain), HVR-1 region): 15
- substitutions ([2]; 50 (unit uncertain), core region): 12
- error generation ([2]; 400 (unit uncertain), across all regions): 0.6-1.2 ×10^−3
- Total Mutations (all regions) ([2]; RBV 50): 54
- ERROR GEN RATE ([2]; RBV 50, 5′UTR): 0.7 X 10^−3
- MUTANT CLONES (%) ([2]; RBV 50, 5′UTR): 3(20%)
- NONSYN/SYN SUBS ([2]; RBV 50, 5′UTR): 0/3
- Transition Mutations T to C ([2]; RBV 50, 5′UTR): 2
- NONSYN/SYN SUBS ([2]; RBV 50, CORE): 8/4
- Transition Mutations C to T ([2]; RBV 50, CORE): 2
- Transition Mutations T to C ([2]; RBV 50, CORE): 2
- insertions (resulting in stop codons) ([2]; RBV 50, CORE): 2 insertions
- ERROR GEN RATE ([2]; RBV 50, CORE, listed as RBV): 1.9^1 X 10^−3
- ERROR GEN RATE ([2]; RBV 50, CORE, listed as REV): 1.9^2 X 10^−3
- MUTANT CLONES (%) ([2]; RBV 50, CORE, listed as REV): 7(50%)
- nt-insertions ([2]; RBV 50, CORE, listed as REV): 4 nt-insertions
- NONSYN/SYN SUBS ([2]; RBV 50, E2): 11/4
- Transition Mutations A to G ([2]; RBV 50, E2): 4
- Transition Mutations C to T ([2]; RBV 50, E2): 1
- Transition Mutations G to A ([2]; RBV 50, E2): 1
- Transition Mutations T to C ([2]; RBV 50, E2): 6
- insertions (resulting in stop codons) ([2]; RBV 50, E2): 2 insertions
- ERROR GEN RATE ([2]; RBV 50, E2 (HVR-1), listed as RBV): 1.7 X 10^−3 and 1.5^2 X 10^−3
- ERROR GEN RATE [2, 5]: 1.5 X 10^−3
- MUTANT CLONES (%) [2, 5]: 12(60%)
- nt-deletion [2, 5]: 1 nt-deletion
- nt-insertion [2, 5]: 1 nt-insertion
- ERROR GEN RATE ([2]; RBV 50, NS5A): 2.5^3 X 10^−3
- MUTANT CLONES (%) ([2]; RBV 50, NS5A): 5(20%)
- NONSYN/SYN SUBS ([2]; RBV 50, NS5A): 12/0
- Transition Mutations A to G ([2]; RBV 50, NS5A): 1
- Transition Mutations C to T ([2]; RBV 50, NS5A): 1
- ERROR GEN RATE ([2]; RBV 50, NS5B): 1.7 X 10^−3
- Transition Mutations A to G ([2]; RBV 50, NS5B): 2
- Transition Mutations C to T ([2]; RBV 50, NS5B): 1
- Transition Mutations G to A ([2]; RBV 50, NS5B): 4
- MUTANT CLONES (%) ([2]; RBV 50, NS5B, listed as RBV): 7(39%)
- NONSYN/SYN SUBS ([2]; RBV 50, NS5B, listed as RBV): 9/3
- NONSYN/SYN SUBS ([2]; RBV 50, NS5B, listed as REV): 9/4
- MUTANT CLONES (%) ([2]; RBV 50, all regions): 29(33%)
- Non-Syn/Syn Substitutions ([2]; RBV 50, all regions): 40/14
- dose-responsiveness of mutations ([2]; RBV 50 vs 400): not a demonstrable dose-responsiveness
- Total Mutations (all regions) ([2]; RBV 400): 31
- ERROR GEN RATE ([2]; RBV 400, 5′UTR): 0.7 X 10^−3
- MUTANT CLONES (%) ([2]; RBV 400, 5′UTR): 3(21%)
- NONSYN/SYN SUBS ([2]; RBV 400, 5′UTR): 0/3
- Transition Mutations A to G ([2]; RBV 400, 5′UTR): 1
- Transition Mutations G to A ([2]; RBV 400, 5′UTR): 1
- MUTANT CLONES (%) ([2]; RBV 400, CORE): 4(20%)
- NONSYN/SYN SUBS ([2]; RBV 400, CORE): 5/1
- Transition Mutations A to G ([2]; RBV 400, CORE): 1
- Transition Mutations C to T ([2]; RBV 400, CORE): 2
- Transition Mutations G to A ([2]; RBV 400, CORE): 1
- Transition Mutations T to C ([2]; RBV 400, CORE): 1
- ERROR GEN RATE ([2]; RBV 400, CORE, listed as RBV): 0.6^4 X 10^−3 and 0.6 X 10^−3
- MUTANT CLONES (%) ([2]; RBV 400, E2): 7(35%)
- Transition Mutations A to G ([2]; RBV 400, E2): 3
- Transition Mutations C to T ([2]; RBV 400, E2): 2
- Transition Mutations G to A ([2]; RBV 400, E2): 1
- Transition Mutations T to C ([2]; RBV 400, E2): 1
- insertions ([2]; RBV 400, E2): 2 insertions
- ERROR GEN RATE ([2]; RBV 400, E2, listed as RBV): 1.2 X 10^−3 and 1.2^4 X 10^−3
- NONSYN/SYN SUBS ([2]; RBV 400, E2, listed as RBV): 9/4 and 7/5
- ERROR GEN RATE ([2]; RBV 400, NS5A): 0.9 X 10^−3
- MUTANT CLONES (%) ([2]; RBV 400, NS5A): 2(14%)
- NONSYN/SYN SUBS ([2]; RBV 400, NS5A): 3/0
- ERROR GEN RATE ([2]; RBV 400, NS5B): 1 X 10^−3
- MUTANT CLONES (%) ([2]; RBV 400, NS5B): 6(35%)
- NONSYN/SYN SUBS ([2]; RBV 400, NS5B): 5/2
- Transition Mutations A to G ([2]; RBV 400, NS5B): 2
- Transition Mutations G to A ([2]; RBV 400, NS5B): 1
- Transition Mutations T to C ([2]; RBV 400, NS5B): 2
- MUTANT CLONES (%) ([2]; RBV 400, all regions): 25(30%)
- Non-Syn/Syn Substitutions ([2]; RBV 400, all regions): 20/11
- induction of mutations / error generation in the HCV genome ([2]; RBV, all regions tested, listed as RBV): induces mutations across all regions; also recorded: increases error generation
- dN/dS (nonsynonymous/synonymous mutation) ([2]; ribavirin at 50 (unit uncertain), all regions tested): 2.85
- HSV-1 plaque formation in CV-1 cells [3]: activity against HSV-1

Molecule: interferon-α-2b
- HCV (−) RNA synthesis ([1]; doses from 2000 to 15,000 units/well, CV-1 cells): dose-dependent inhibition
- Total Mutations (all regions) ([2]; IFN 100,000): 30
- MUTANT CLONES (%) ([2]; IFN 100,000, all regions): 19(30%)
- Non-Syn/Syn Substitutions ([2]; IFN 100,000, all regions): 20/10
- 5′ UTR sequences ([2]; IFN 100,000 U): remained invariant
- ERROR GEN RATE ([2]; IFN 100,000U, 5′UTR): 0 X 10^−3
- MUTANT CLONES (%) ([2]; IFN 100,000U, 5′UTR): 0
- NONSYN/SYN SUBS ([2]; IFN 100,000U, 5′UTR): 0
- MUTANT CLONES (%) ([2]; IFN 100,000U, CORE): 4(36%)
- NONSYN/SYN SUBS ([2]; IFN 100,000U, CORE): 2/2
- Transition Mutations T to C ([2]; IFN 100,000U, CORE): 2
- ERROR GEN RATE ([2]; IFN 100,000U, CORE, listed as IFN): 0.8^5 X 10^−3 and 0.8 X 10^−3
- ERROR GEN RATE ([2]; IFN 100,000U, E2): 2.8^6 X 10^−3
- MUTANT CLONES (%) ([2]; IFN 100,000U, E2): 10(83%)
- NONSYN/SYN SUBS ([2]; IFN 100,000U, E2): 10/6
- Transition Mutations A to G ([2]; IFN 100,000U, E2): 4
- Transition Mutations C to T ([2]; IFN 100,000U, E2): 2
- Transition Mutations T to C ([2]; IFN 100,000U, E2): 9
- stop codon ([2]; IFN 100,000U, E2): 1
- ERROR GEN RATE ([2]; IFN 100,000U, NS5A): 1.4 X 10^−3
- MUTANT CLONES (%) ([2]; IFN 100,000U, NS5A): 3(16%)
- NONSYN/SYN SUBS ([2]; IFN 100,000U, NS5A): 5/1
- Transition Mutations A to G ([2]; IFN 100,000U, NS5A): 1
- Transition Mutations C to A ([2]; IFN 100,000U, NS5A): 2
- Transition Mutations T to C ([2]; IFN 100,000U, NS5A): 1
- ERROR GEN RATE ([2]; IFN 100,000U, NS5B): 0.9 X 10^−3
- MUTANT CLONES (%) ([2]; IFN 100,000U, NS5B): 2(18%)
- NONSYN/SYN SUBS ([2]; IFN 100,000U, NS5B): 3/1
- dN/dS (nonsynonymous/synonymous mutation) ([2]; IFN-α, all regions tested): 2.0
- HCV core protein synthesis [4]: dose-responsive inhibition

Molecule: NC12CC3CC(CC(C3)C1)C2 [amantadine]
- HCV (−) strand synthesis ([1]; doses 1-100 mg/well): no activity; also recorded: Neither ribavirin nor amantadine demonstrated direct activity
- HCV (−) strand results with other timing of the drug [1]: unchanged
